Data on 32 compounds can be found in patent US5171863A, “Intermediates for preparing 4-substituted 2-5(H)-furanones as anti-inflammatory agents” (Allergan, Inc., priority 1991, dated 1992).

Like-named read-outs stand apart in the source and are kept apart here. Where only a bound is given, the exact number is not on record here.

Broadly, the IC50 is the concentration at which inhibition is half-maximal.

For series [1], the target named is bee venom phospholipase A2 (Apis mellifera, UniProt P00630). Kind of series: biochemical. As to conditions: read-out: IC50 (micromolar), Phospholipase A2 Assay.
Series [2] in a line: Isomerization upon standing. The format is physicochemical.
Another series has as its system Calcium Channel. Kind of series: Calcium Channel (mobilization) Inhibition Assay. In kind it is cell-based. From the text: Calcium Channel (mobilization) Inhibition Assay
Polymorphonuclear leukocytes (PMNa), gastric glands, GH3 cells, A431 cells, spleen cells, human keratinocytes corneal cells, etc. were loaded with the Ca^2+ sensitive fluorescent dye, Fura-2. The appropriate cell type was chosen and the potency and efficacy of the anti-inflammatoryfuranones on calcium mobilization, calcium channel inhibition was quantitated. The methods used for A431 cells listed below are representative of those used for other cells.
A431 cells were detached using a 5-10 min trypsin-EDTA treatment whereas GH3 cells were treated 2 to 5 min with a 1% pancreatin solution. Cells were immediately washed twice in a 20 mM HEPES buffer (pH 7.4) containing 120 mM NaCl, 6 mM KCl, 1 mM MgSO4, 1 mg/ml glucose and 1 mg/ml pyruvate and 1.4 mM calcium (medium A). Approximately 5×10^6 cells were suspended in medium A and incubated with 4 uM fura-2-AM for 15 min at 37° C.
After washing the fura-2 loaded cells, the uptake of dye was checked using fluorescence microscopy and found to be evenly distributed in the cytosol of all cells. Fluorescence was continuously recorded with a Perkin-Elmer LS-5 spectrofluorometer. The excitation wavelength was set at 340 nm and emission wavelength set at 500 nm. The cell suspension was continually stirred, maintained at 37° C. and equilibrated for approximately 5 min before addition of various agents. [Ca^2+ i was calculated using the following formula: [formula]
All fluorescence values were measured relative to a EGTA-quenched signal determined as follows: F was the relative fluorescence measurement of the sample. Fmax was determined by lysing the cells with digitonin (100 ug/ml) in DMSO. After Fmax was determined the pH was adjusted to 8, with NaOH and Ca^2+ chelated with 3 mM EGTA to totally quench the fura-2 signal and obtain Fmin.
When quin-2- was used, cells were incubated with 10 uM quin-2- at 37° C. for 1 hour, washed and then used.
In the above-described phospholipase A2 (PLA2) and calcium^+ channel mobilization assays certain examplary compounds made from the synthetic intermediate compounds of the present invention had the following activities.

The conditions of series [3]: prior art; cited from earlier work.
The test system of series [4] is phosphoinositide-specific phospholipase C. The note with it: reported, Bennett et al, Molecular Pharmacology 32:587-593 (1987); cited from earlier work.
[5] abbreviates: read-out: IC50 (umolar) (KCl regulated), Calcium Channel Inhibition Assay.
The mark [6] stands for this setting: read-out: IC50 (umolar) (TRH regulated), Calcium Channel Inhibition Assay.

Sequence of bee venom phospholipase A2 (P00630 34-167 limits assumed): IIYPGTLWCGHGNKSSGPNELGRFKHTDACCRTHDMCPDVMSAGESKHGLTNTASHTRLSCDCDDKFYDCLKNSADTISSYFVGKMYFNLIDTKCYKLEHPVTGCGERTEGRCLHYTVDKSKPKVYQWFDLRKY

For `COCCOCOCC1=CC(=O)OC1O` (stereo not drawn) [Compound 20], the 50% inhibitory concentration (IC50) in series [1] was over 1 µM.

Regarding `CCCCCCCCCCCCP(=O)(O)OCC1=CC(=O)OC1O` (stereo not drawn) [Compound 21, 4-(Dodecylohosphonyloxymethyl)-5-hydroxy-2(5H)-furanone], in series [1], the concentration for half-maximal inhibition (IC50) worked out at 0.03 µM.

On to `CCCCCCCCCCCCNC(=O)OCC1=CC(=O)OC1O` (stereo not drawn) [Compound 22, 4-(N-Dodecylcarbamoyloxymethyl)-5-hydroxy-2(5H)-furanone], for which, in series [1], the IC50 was 0.05 µM.

`CCCCCCCCCCCCOCC1=CC(=O)OC1O` (stereo not drawn) [Compound 23]: the IC50 in series [1] is 0.04 µM.

Consider `CCOP(=O)(OCC)OCC1=CC(=O)OC1O` (stereo not drawn) [Compound 24, 4-1-(Diethylphosphoryloxy)methyl-5-hydroxy-2(5H)-furanone], for which the IC50 in series [1] worked out at 0.34 µM.

Turning to `CCCCCCCCCCCC(=O)NCC1=CC(=O)OC1O` (stereo not drawn) [Compound 25, 4-(N-Dodecanoylaminomethyl)-5-hydroxy-2(5H)-furanone], the IC50 in series [1] came to 0.26 µM.

In the case of `CCCCCCCCCCCCNC(=O)NCC1=CC(=O)OC1O` (stereo not drawn) [Compound 26, 4-(N-Dodecylureido)methyl-5-hydroxy-2(5H)-furanone], in series [1], the IC50 worked out at 0.13 µM.

As for `CCCCCCCCCCCCS(=O)(=O)NCC1=CC(=O)OC1O` (stereo not drawn) [Compound 27, 4-(N-Dodecylsulfonamido)-methyl-5-hydroxy-2(5H)-furanone], the concentration for half-maximal inhibition (IC50) in series [1] is 0.04 µM.

In the case of `CCCCCCCCCCCCC(OC(C)=O)C1=CC(=O)OC1O` (stereo not drawn) [Compound 28, 4(1-Acetoxytridecyl)-5-hydroxy-2(5H)-furanone], in series [1], the IC50 amounted to 0.04 µM.

`CCCCCCCCCCCCC(NC(C)=O)C1=CC(=O)OC1O` (stereo not drawn) [Compound 29]: the half-inhibitory concentration (IC50) in series [1] was determined as 0.07 µM.

Consider `CCCCCCCCCCCCC(NC(=O)C(F)(F)F)C1=CC(=O)OC1O` (stereo not drawn) [Compound 30], for which the 50% inhibitory concentration (IC50) in series [1] is 0.06 µM.

Consider `CCCCCCCCCCCCC(NS(C)(=O)=O)C1=CC(=O)OC1O` (stereo not drawn) [Compound 31], for which the half-maximal inhibitory concentration (IC50) in series [1] was found to be 0.05 µM.

On to `CCCCCCCCCCCCC(NC(=O)NC)C1=CC(=O)OC1O` (stereo not drawn) [Compound 32, 4-[-1-(N-methylureido)tridecyl]-5-hydroxy-2(5H)-furanone], for which the IC50 in series [1] came out at 0.48 µM.

On to `CCCCCCCCCCCC(=O)NCC(O)C1=CC(=O)OC1O` (stereo not drawn) [Compound 40, 4-(2-Undecanylamido-1-hydroxy)ethyl-5-hydroxy-2(5H)-furanone], for which, in series [1], the IC50 amounted to 0.28 µM.

On to `CCCCCCCCCCCC(=O)NCC(OC(C)=O)C1=CC(=O)OC1O` (stereo not drawn) [Compound 41, 4-(1-Acetoxy-2-undecanylamido)ethyl-5-hydroxy-2(5H)-furanone], for which, in series [1], the IC50 stood at 0.04 µM.

For `CCCCCCCCCCCC(=O)NCC(OC(=O)CCCCCCCCCCC)C1=CC(=O)OC1O` (stereo not drawn) [Compound 42, 4-(2-Undecanylamido-1-dodecanoyloxy)ethyl-5-hydroxy-2(5H)-furanone], in series [1], the half-inhibitory concentration (IC50) is 0.03 µM.

Turning to `CCCCCCCCCCCCS(=O)(=O)NCC(OC(C)=O)C1=CC(=O)OC1O` (stereo not drawn) [Compound 43, 4-[1-Acetoxy-2-(dodecanesulfonylamido)ethyl]-5-hydroxy-2(5H)-furanone], the IC50 in series [1] stood at 0.03 µM.

As to `CC(=O)OC(CNC(=O)CCCCCCCCCCC(=O)O)C1=CC(=O)OC1O` (stereo not drawn) [Compound 44], the IC50 in series [1] turned out to be 0.09 µM.

As for `CCCCCCCCCCCC(=O)OC(CNC(=O)N1CCN(S(C)(=O)=O)CC1)C1=CC(=O)OC1O` (stereo not drawn) [Compound 45], the half-inhibitory concentration (IC50) in series [1] was found to be 0.05 µM.

Consider `CCCCCCCCCCCC(=O)OC(CNC(=O)N(CC)CC)C1=CC(=O)OC1O` (stereo not drawn) [Compound 46, 4-[1-Dodecanoyloxy-2-(N',N'-diethyl)carboxyamido]ethyl-5-hydroxy-2(5H)-furanone], for which the IC50 in series [1] was found to be 0.02 µM.

`CCCCCCCCCCCCSCC1=CC(=O)OC1O` (stereo not drawn) [Compound 47, 4-Dodecanethiomethyl-5-hydroxy-2(5H)-furanone]: the 50% inhibitory concentration (IC50) in series [1] turned out to be 0.06 µM.

For `CCCCCCCCCCCC(=O)OCCCC1=CC(=O)OC1O` (stereo not drawn) [Compound 50], the IC50 in series [1] amounted to 0.5 µM.

Turning to `CCCCCCCCOC(=O)C=CC1=CC(=O)OC1O` (stereo not drawn) [Compound 51, Octyl 3-(5-hydroxy-2-on-4-furyl)propen-2-oate], the concentration for half-maximal inhibition (IC50) in series [1] came to 0.09 µM.

Turning to `CCCCCCCCCCCCC(OC(C)=O)C1=CC(=O)OC1(C)O` (stereo not drawn) [Compound 60, 4-(1-Acetoxytridecyl)-5-hydroxy-5-methyl-2-furanone], the concentration for half-maximal inhibition (IC50) in series [1] is 0.06 µM. In series [2], the “isomerization of epimers upon standing” value is “isomerizes upon standing”.

With `CCCCCCCCCCCCC(OC(C)=O)C1=C(C)C(=O)OC1O` (stereo not drawn) [Compound 61, 4-(1-Acetoxytridecyl)-3-methyl-5-hydroxy-2(5H)-furanone], the IC50 in series [1] was over 1 µM.

In the case of `CCCCCCCCCCCCC(OC(=O)Nc1ccccc1)C1=CC(=O)OC1(C)O` (stereo not drawn) [Compound 62, 5-Methyl-5-hydroxy-4-(1-phenylcarbamoyloxy)tridecyl-2-furanone], the 50% inhibitory concentration (IC50) in series [1] was determined as 0.24 µM.

On to `CCCCCCCCC(OC(C)=O)C1=CCOC1=O` (stereo not drawn) [Compound 70, 3-(1-Acetoxynonyl)-2(5H)-furanone], for which the IC50 in the series with Calcium Channel (setting [5]) was 3.4 µM; in the series on Calcium Channel (setting [6]), 4.9 µM.

`CCCCCCCCCCCCC(O)C1=CCOC1=O` (stereo not drawn) [Compound 71, 3-(1-Hydroxytridecyl)-2(5H)-furanone]: the IC50 in the series on Calcium Channel (setting [5]) was 1.1 µM; with Calcium Channel (setting [6]), 2 µM.

As to `CCCCCCCCCCCCC(OC(C)=O)C1=CCOC1=O` (stereo not drawn) [Compound 72, 3-(1-Acetoxytridecyl)-2(5H)-furanone], the IC50 in the series with Calcium Channel (setting [5]) was determined as 0.88 µM; in the series with Calcium Channel (setting [6]) it was 16.9 µM.

As to `CC1=C(CC/C(C)=C/CCC(C=O)=CC=CC2=CC(=O)OC2O)C(C)(C)CCC1` (stereo not drawn) [dehydro-seco-manoalide], the “anti-inflammatory, immunosuppressive and analgesic properties” value in series [3] is “anti-inflammatory activity”.

`CC1=C(CC/C(C)=C/CCC2=CCC(C3=CC(=O)OC3O)OC2O)C(C)(C)CCC1` (stereo not drawn) [manoalide, reference compound]: the IC50 in the series on Calcium Channel (setting [5]) and in the series with Calcium Channel (setting [6]) was 1 µM each time. Moreover, in series [4], the “inhibition of phosphoinositide-specific phospholipase C” value is “inhibition of phosphoinositide-specific phospholipase C”. The “anti-inflammatory, immunosuppressive and analgesic properties” value in series [3] was “anti-inflammatory,immunosuppressive and analgesic properties”.

As for `CC1=C(CC/C(C)=C/CCC(C=O)=CCC(O)C2=CC(=O)OC2O)C(C)(C)CCC1` (stereo not drawn) [seco-manoalide], in series [3], the “anti-inflammatory, immunosuppressive and analgesic properties” value was “anti-inflammatory activity”.
